One substance from patent US20230167155A1, “COMPOSITIONS AND METHODS” (KING'S COLLEGE LONDON, priority 2020, published 2023) can be followed below.

Entries after “also recorded” stand apart in the source; their conditions may differ. Where no end group is shown, it is not given here. The star is where a group is joined. Myristoyl = CCCCCCCCCCCCCC(=O)*

The subject of experiment [1] is ApoE−/− mice. As to the kind of experiment: Regression of established atheroma, weekly IV injections (Oil Red O en face, aortic root). Details: regression of atherosclerosis compared to PTL060 and untailed 3-MP: dose or concentration left out as unconfirmed. Format: in vivo, mouse. How it is done: For all atherosclerosis work, male ApoE−/− mice, from the age of 6-weeks, were fed with a high fat diet (HFD) consisting 35 kcal % fat, 1.25% cholesterol, and 0.5% cholic acid (Special Diet Services, Essex UK). Aortas were transplanted 2 weeks after starting the HFD, using a sleeve anastomosis technique described previously^11. Briefly, a 5 mm of the segment of the infrarenal donor aorta, flushed with 300 μl of saline containing 50 U of heparin, was transplanted into ApoE−/− recipient abdomen aortas (N=6 per group). Blood flow was confirmed by direct inspection after removal of the clamps. Mice were fed a HFD for 6-12 weeks post-transplantation before the experiment was terminated (Suppl FIG. 1A). To assess prevention of atheroma, mice (n=6 per group) received a single injection of PTL060 or controls by tail vein, and the experiments terminated 1-3 weeks later (Suppl FIG. 1B). For regression experiments, baseline groups (n=6) were fed a HFD to the age of 22 weeks before the mice were sacrificed. Experimental or control groups (n=3-6 per group) received weekly injections by tail vein for 3-6 weeks, beginning at age of 22 weeks before the experiments were terminated when mice were 25-28 weeks old (Suppl FIG. 1C).
Atherosclerotic lesions were evaluated as previously described^11. Simply, the entire length of the aorta was perfused with PBS, dissected using a dissecting microscope, longitudinally opened and stained with Oil Red O (ORO) solution (Sigma, UK) for 30 minutes, before being photographed with a digital camera (DSC-W320, Sony, Japan). The total aortic area and lesional area were measured by using Image J. Aortas from every animal were assessed. To assess lesions in the aortic sinus, hearts were embedded in paraffin, sectioned through the aortic root and incubated with elastin/van Gieson stain using the Accustain™ Elastin Stain kit (Sigma). Sections were examined on an Olympus U-ULH optical microscope (Olympus Optical Co. Ltd, Tokyo, Japan). Atheromatous lesional and total aortic root area was determined using Image-Pro Plus TM software version 4.0 (Media Cybernetics, Silver Spring, USA). At least three random sections were examined from each mouse in all groups.

Experiment [2] relates to C57BL/6 mice. As to the kind of experiment: Delayed type hypersensitivity, contact sensitivity to oxazolone (ear swelling). The class given is in vivo, mouse. How it is done:
C57BL/6 mice were topically sensitised with oxazolone on the shaved abdomen on day 0. Treatment with either saline, PTL060 (10 mg/g), equimolar PTL0GC-1 or equimolar *3-MP was given on day 3 and day 5, the last immediately prior to re-challenge with oxazolone onto the right ear. The left ear was treated with vehicle alone. On day 6, the difference in swelling of the right and left ears was measured and is presented as D mean ear thickness.
This example uses a model of contact hypersensitivity. Here, mice are challenged on the abdomen with the contact sensitizer oxazolone, before a re-challenge […] on both sides of the ear with oxazolone (on the right) or vehicle alone (on the left).
Swelling of the ears, measured with a micrometer, reflects the influx of monocytes/macrophages and T cells in a typical delayed-type hypersensitivity (DTH) response.
FIG. 19: Model of DTH involving contact sensitivity to oxazolone. WT mice were administered a PAR-1 agonist or antagonist at the point of second exposure to oxazolone, before ear thickness was assessed 24 hours later, and mice sacrificed for immunohistological analysis of cross sections of the affected ears, to determine the proportional area occupied by CD68+ cells (macrophages). *p<0.05. **p<0.01. ***p<0.001

Experiment [3] concerns ApoE−/− mice. As to the kind of experiment: Regression by weekly adoptive transfer of CD11b+ cells / monocytes pre-incubated with compound. Format: in vivo, mouse. The conditions noted are these: HFD 16 weeks, weekly IV 6 weeks; monocytes pre-treated 30 minutes, PTL060 100 microM or PTL0GC-1 25 microM. How it is done: In more detail, mechanistic insights: direct effect on monocyte/macrophage phenotype. ApoE−/− mice were fed a high fat diet for 16 weeks (baseline), prior to weekly IV treatment for 6 weeks with monocytes from BL6 mice, pre-treated for 30 minutes with either PTL060 (100 microM) or PTL0GC-1 (actually used at ¼ concentration-25 microM).
Extent of atherosclerosis was explored by en face examination of the surface area of aorta containing plaques using Oil-Red-O
Leukocytes were isolated from the blood of mice aged 8-10 weeks, using anti-CD11b MicroBeads (Miltenyi Biotec Ltd, Surrey, UK) according to manufacturers' instructions. For cell labelling, 2×10^7 CD11b+ cells were incubated with 4×10^−6 M of either PKH26 or PKH2 fluorescent dyes (Sigma, UK) for 5 minutes at 25° C. according to manufacturers' protocols, with the reaction stopped using 1% BSA in PBS followed by three washes. Each recipient mouse received 0.5×10^6 cells by IV injection; in some experiments, the cells were incubated with PTL060 (100 μM in 0.5 mls) or equimolar controls for 30 minutes at room temperature and washed three times before immediate injection. For viability assays, murine bone marrow cells were incubated for 5 days in 6 well plates, counted and re-seeded at 2×10^5 cells/ml in 24 well plates with 25 ng/ml MCSF. […]

Experiment [4] can be described thus: Aristolochic acid nephropathy (AAN) model of renal fibrosis. The conditions noted are these: vs equimolar PTL060 or pure PAR-1 antagonist. Format: in vivo.
Experiment [5] deals with C57BL/6 mice. As to the kind of experiment: Ischaemia reperfusion injury, acute kidney injury. Format: in vivo, mouse. The conditions noted are these: 2 doses 7.5 mg/ml. The method, then: In more detail, Model 3: Ischaemia reperfusion injury: PTL0GC-1 induces quicker recovery, associated with reduced fibrosis, post acute kidney injury. Both kidneys of C57BL/6 mice were exposed under recovery anaesthesia, and both renal arteries completely occluded by clamps for 30 minutes, prior to release. 2 doses of PTL0GC-1 (7.5 mg/ml) or saline were administered to the mice immediately prior to clamping, and immediately prior to clamp release. Mice were allowed to recover and then monitored for 3 weeks, prior to euthanasia.

Take “[Myr2]-KSSKSPSKKDDKKPGDK(CO—CH2-S—CH2-CH2-Phe-Cha-Cha-Arg-Lys-Pro-Asn-Asp-Lys-NH2)NH2 (K(Myristoyl)SSKSPSKKDDKKPGDK-NH2; not fully specified (residue 17, N-terminus); also: branched: thioether-linked Phe-Cha-Cha-Arg-Lys-Pro-Asn-Asp-Lys-NH2 on Lys17 side chain) [PTL0GC-1]”: the “regression of atherosclerosis, being confirmed” value with ApoE−/− mice [1] (ApoE−/− mice, vs equimolar PTL060 or pure PAR-1 antagonist) is reported as “causes significant regression of atherosclerosis”. Moreover, the “regression of atherosclerosis compared to PTL060 and untailed 3-MP” value in the experiment with ApoE−/− mice [1] (HFD 16 weeks, weekly IV for 6 weeks, equimolar to PTL060) is recorded as “Superior regression”. The “DTH response, IP and SC administration” value in the experiment on C57BL/6 mice [2] (intraperitoneal or subcutaneous, day 3 and day 5) is “efficacy of both IP and SC administration; also recorded: can inhibit the DTH response”. The “difference in ear swelling (D mean ear thickness)” value in the experiment with C57BL/6 mice [2] (intravenously, day 3 and day 5, equimolar to PTL060 (10 mg/g), vs PTL060 and 3-MP) is “biggest effect”. In the experiment on C57BL/6 mice [2] (model of DTH), the “macrophage infiltration into the skin” value was “reduced macrophage infiltration into the skin”. In the experiment with ApoE−/− mice [3], the “regression after transfer of pre-treated monocytes” value is “the same degree of regression associated with IV treatment of the same reagents; also recorded: superior regression”. The “development of renal fibrosis, being confirmed” value in experiment [4] is reported as “inhibits development of renal fibrosis”. Besides, in the experiment with C57BL/6 mice [5] (prior to clamping and prior to clamp release, renal arteries clamped 30 minutes), the “impact on the AKI” value is recorded as “no impact on the AKI”. Besides, the “kidney fibrosis, histological analysis” value in the experiment on C57BL/6 mice [5] (3 weeks) is given as “trend towards less fibrosis”. Moreover, the “renal function” value in the experiment on C57BL/6 mice [5] (by 3 weeks) is “better renal function by 3 weeks”. Also, the “body weight during recovery phase” value in the experiment on C57BL/6 mice [5] (monitored 3 weeks) is “gain weight quicker”.
